Experiment [1] addresses NUDT1 (Homo sapiens, UniProt P36639). The experiment is described as follows: Gel-based AfBPP labelling of recombinant NUDT1 spiked into human lysate. Set-up: Full length NUDT1 gene synthesis; N-terminal His tag with thrombin site from pET28a(+) (NdeI/XhoI) (N, cleaved yes); made in house; host or cells: E. coli BL21 (DE3). As to conditions: parent compound added before probe. Format: binding.

Experiment [2] concerns the target T1, PTGR2 (Homo sapiens, UniProt Q8N8N7).
T1 construct: purchased Antikoerper-online ABIN1098255
The experiment is described as follows: PTGR2 activity assay (LC-MS/MS). It counts as biochemical. As to conditions: tested up to 250 μM, data not shown. The procedure:
AIFM1 expression & purification
Recombinant AIFM1 was expressed in a Rosetta2 E. coli strain. Bacterial growth was conducted in LB media supplemented with riboflavin and FAD shaking at 37°C and 180 rpm. Expression was induced with 1.0 mM IPTG and incubated for further 16 h before harvesting. Cells were harvested on ice in PBS and cell pellets stored at -20°C. Cells were lysed by French press and the 6xHis-tagged constructs were purified by Immobilized Metal Affinity Chromatography using Ni Sepharose (6 Fast Flow, GE). The centrifugation-cleared bacterial lysate was bound to beads in binding buffer (200 mM NaCl, 20 mM Tris/Cl pH = 7.4). […]
For gel-based fluorescence labelling of recombinant AIFM1, 1.7 µM recombinant protein was spiked - in to PBS or PBS -diluted HEK293 cell lysate ( 100 µg per reaction sample). […]
Click Master-mix (8 µL, 100 µM TAMRA-azide, Baseclick, Neuried, Germany, Cat# BCFA-008-10, 500 µM BTTAA ligand, Jena Bioscience, Jena, Germany, CLK -067, 1 mM CuSO4) was added and the CuAAC reaction started by addition of 2 µL of aq. sodium ascorbate (c end= 2 mM). […] Fluorescence scanning was performed using a Las-3000 fluorescence darkbox (Fujifilm, Minato, Japan) with a Fujinon VRF 43LMD Lens, 605DF40 filter and 520 nm EPI excitation wavelength and loading controls were developed with Coomassie stain afterwards. […]

T1 sequence (Q8N8N7 whole entry): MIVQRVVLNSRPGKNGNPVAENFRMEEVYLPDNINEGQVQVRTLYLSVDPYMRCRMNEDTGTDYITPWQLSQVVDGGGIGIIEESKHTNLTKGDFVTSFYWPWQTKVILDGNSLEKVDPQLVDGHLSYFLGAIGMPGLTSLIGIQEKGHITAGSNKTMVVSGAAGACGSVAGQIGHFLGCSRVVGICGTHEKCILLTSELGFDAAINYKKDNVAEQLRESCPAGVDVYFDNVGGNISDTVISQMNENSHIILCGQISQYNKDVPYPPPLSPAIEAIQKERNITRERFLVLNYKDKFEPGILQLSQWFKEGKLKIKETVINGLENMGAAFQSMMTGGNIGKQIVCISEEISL

On to `O=C(O)c1cn(C2CC2)c2cc(N3CCNCC3)c(F)cc2c1=O` [Ciprofloxacin], for which the “competition of Cipro P2 / Levo P2 labeling of recombinant NUDT1” value in experiment [1] is “competed”. Besides, the PTGR2 activity entry in experiment [2] is “not significantly affected”.

Values taken from paper PMC12036814 (Angewandte Chemie (International Ed. in English), 2025).
